{"source": "patent US7250157B2", "about": "“Dermatological compositions and methods” (Applied Genetics Incorporated Dermatics, priority 1996, dated 2007)", "key": {"[1]": {"test_system": "Cloudman S91 mouse melanoma cell line", "assay": "Cell count (proliferation, toxicity) of treated S91 cells", "type": "cell-based", "summary_of_the_method": "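S91 cells in 2% calf serum exposed to test compounds for 6 days at 37° C; differentiated vs dedifferentiated morphology scored microscopically and trypsin detachment time recorded. Cells counted for proliferation; melanin extracted in 1N NaOH, A475 against melanin standards, expressed as pg melanin/cell.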"}, "[2]": {"test_system": "Cloudman S91 mouse melanoma cell line", "assay": "Trypsinization detachment time of S91 cells", "type": "cell-based", "description": "Following this microscopic examination, cells were detached from dishes by trypsin. The time required for detachment by trypsin was recorded as an additional indicator of the phenotypic effects of test compounds. For each treatment, a subsample of cells was counted to determine the effects of treatment compounds on cellular proliferation. The remainder of cells were used for determination of melanin content. Melanin was extracted from cells by vortexing for 15 min in 1N NaOH. Standards were prepared by dissolving melanin (Sigma) in 1 N NaOH (Eller, et al., 1996). Absorbance of standards and samples was measured at 475 nm. Melanin was expressed as pg melanin/cell."}, "[3]": {"test_system": "Cloudman S91 mouse melanoma cell line", "assay": "Microscopic morphology (differentiation) of S91 cells", "type": "cell-based", "description": "The Cloudman S91 mouse melanoma cell line was obtained from American Type Culture Collection (ATCC). Cells were cultured in Dulbecco's Modified Eagles Medium (DMEM) containing 10% calf serum, 2 mM L-glutamine, 10 U Penicillin/ml and 10 ug Streptomycin/ml according to a previously published protocol (Eller, et al., Proc. Natl. Acad. Sci. 93:1087-92. 1996). For testing propylene glycol and analogues for induction of melanogenesis, S91 cells were plated at 10^5 cells/35 mm dish in 10% calf serum. One day after plating, media was removed and replaced with media containing 2% calf serum and test compounds (Eller, et al., 1996). Cells were cultured for 6 days at 37° C. in 5% CO2 in a humidified incubator. Following this treatment period, cells were examined microscopically and the portion of dedifferentiated and differentiated cells was estimated. Previous studies have shown that dedifferentiated S91 cells have a rounded, spindly appearance while differentiated S91 cells have a flattened, cuboidal, multipolar and dendritic appearance (Orlow, et al., Exp. Cell Res. 191:209-218, 1990)."}, "[4]": {"test_system": "normal human epidermal melanocytes (NHEM)", "assay": "Morphological differentiation of NHEM", "type": "cell-based", "details": "5 mM", "description": "Additionally, the length of dendrites was increased approximately 2-3-fold following treatment with 5 mM 5-NBene-2,2-DM, and there was an increase in the number of secretatory vesicles at the termini of dendrites (arrows in FIGS. 3A and 3B). […] Increased secretion of melanosomes resulting from treatment with 5 mM 5-NBene-2,2-DM was reflected in increased extracellular particulate tyrosinase activity (Example 7, Table 11)."}, "[5]": {"test_system": "nitric oxide in cell-free media from S91 cells", "assay": "Nitric oxide in cell-free media from S91 cells (Greiss reagent)", "type": "cell-based, mouse", "details": "4 days", "description": "In a related experiment, nitric oxide was measured in cell-free media from S91 cells following treatment with a range of concentrations of 2,3-cis/exo-pinanediol or 5-norbornene-2,2-dimethanol for 4 days. In biological fluids, nitric oxide is converted into nitrite and nitrate with seconds of production. Therefore, nitric oxide is measured by first converting nitrate to nitrite using nitrate reductase, followed by addition of Greiss reagent to detect nitrite as optical density at 550 nm (Moshage, et al., 1995, Clin. Chem. 41:892-896; Schmidt, et al., 1995, Biochemica 2:22)). […] Moreover, the relative melanogenic potency of 2,3-cis/exo-pinanediol and 5-norbornene-2,2-dimethanol shown in FIG. 5 paralleled the relative potency of these compounds with regards to induction of nitric oxide (Table 17). […] It follows that measurement of induction of nitric oxide, cGMP or PKG may provide biochemically relevant screening assays for compounds that may be melanogenic. Thus, the utilization of these assays to screen compounds for melanogenic activity is claimed in the present invention."}}, "data": [{"smiles": "CC(O)CO", "note": "(stereo not shown) [1,2-propanediol, 1,2-Propanediol (Propylene Glycol)]", "values": [{"measurement": "Cells (×10^6)", "setting": "[1]; 50 mM", "result": "0.084 ×10^6"}, {"measurement": "Cells (×10^6)", "setting": "[1]; 150 mM", "result": "0.072 ×10^6"}, {"measurement": "Cells (×10^6)", "setting": "[1]; 1% (136 mM), 6 days", "result": "0.52 ×10^6"}, {"measurement": "Cells (×10^6)", "setting": "[1]; 2% (272 mM), 6 days", "result": "0.50 ×10^6"}, {"measurement": "Cells (×10^6)", "setting": "[1]; 3% (408 mM), 6 days", "result": "0.20 ×10^6"}, {"measurement": "Cells (×10^6)", "setting": "[1]; 4% (544 mM), 6 days", "result": "0.10 ×10^6"}, {"measurement": "Cells (×10^6)", "setting": "[1]; 5% (680 mM), 6 days", "result": "0.08 ×10^6"}, {"measurement": "effect on cell proliferation", "setting": "[1]; levels used in this experiment (50 and 150 mM)", "result": "no reduction of cell proliferation"}, {"measurement": "Trypsinization Detachment Time", "setting": "[2]; 50 mM", "result": 3, "unit": "min"}, {"measurement": "Trypsinization Detachment Time", "setting": "[2]; 150 mM", "result": 6, "unit": "min"}, {"measurement": "Trypsinization Detachment Time", "setting": "[2]; 1% (136 mM)", "result": "≦6 min"}, {"measurement": "Trypsinization Detachment Time", "setting": "[2]; 2% (272 mM)", "result": "≦9 min"}, {"measurement": "Trypsinization Detachment Time", "setting": "[2]; 3% (408 mM)", "result": "≦12 min"}, {"measurement": "Trypsinization Detachment Time", "setting": "[2]; 4% (544 mM)", "result": "≦15 min"}, {"measurement": "Trypsinization Detachment Time", "setting": "[2]; 5% (680 mM)", "result": "≦15 min"}, {"measurement": "Morphology Flattened Cuboidal", "setting": "[3]; 50 mM", "result": 25, "unit": "%"}, {"measurement": "Morphology Rounded Spindly", "setting": "[3]; 50 mM", "result": 75, "unit": "%"}, {"measurement": "Morphology Flattened Cuboidal", "setting": "[3]; 150 mM", "result": 50, "unit": "%"}, {"measurement": "Morphology Rounded Spindly", "setting": "[3]; 150 mM", "result": 50, "unit": "%"}, {"measurement": "Morphology Flattened Cuboidal", "setting": "[3]; 1% (136 mM)", "result": 10, "unit": "%"}, {"measurement": "Morphology Rounded Spindly", "setting": "[3]; 1% (136 mM)", "result": 90, "unit": "%"}, {"measurement": "Morphology Flattened Cuboidal", "setting": "[3]; 2% (272 mM)", "result": 30, "unit": "%"}, {"measurement": "Morphology Rounded Spindly", "setting": "[3]; 2% (272 mM)", "result": 70, "unit": "%"}, {"measurement": "Morphology Flattened Cuboidal", "setting": "[3]; 3% (408 mM)", "result": 60, "unit": "%"}, {"measurement": "Morphology Rounded Spindly", "setting": "[3]; 3% (408 mM)", "result": 40, "unit": "%"}, {"measurement": "Morphology Flattened Cuboidal", "setting": "[3]; 4% (544 mM)", "result": 85, "unit": "%"}, {"measurement": "Morphology Rounded Spindly", "setting": "[3]; 4% (544 mM)", "result": 15, "unit": "%"}, {"measurement": "Morphology Flattened Cuboidal", "setting": "[3]; 5% (680 mM)", "result": 100, "unit": "%"}]}, {"smiles": "OCC1(CO)CC2C=CC1C2", "note": "(stereo not shown) [5-NBene-2,2-DM, 5-norbornene-2,2-dimethanol]", "values": [{"measurement": "increase of length of dendrites of NHEM", "setting": "[4]", "result": "2-3 fold"}, {"measurement": "morphological changes of NHEM (in words)", "setting": "[4]", "result": "conversion of cells from a bipolar phenotype to a multidendritic phenotype"}, {"measurement": "Cells (×10^6)", "setting": "[1]; 1 mM, 4 days, X ± SE, n = 3", "result": "0.423 ± 0.052 ×10^6"}, {"measurement": "Cells (×10^6)", "setting": "[1]; 2.5 mM, 4 days, X ± SE, n = 3", "result": "0.269 ± 0.040 ×10^6"}, {"measurement": "Cells (×10^6)", "setting": "[1]; 5 mM, 4 days, X ± SE, n = 3", "result": "0.090 ± 0.011 ×10^6"}, {"measurement": "toxicity to S91 cells", "setting": "[1]; concentrations that induce much higher levels of tyrosinase", "result": "nontoxic"}, {"measurement": "nmoles NO/10^6 Cells", "setting": "[5]; 1 mM", "result": "11.6 ± 1.1", "unit": "nmoles NO/10^6 Cells"}, {"measurement": "uM NO", "setting": "[5]; 1 mM", "result": "4.80 ± 0.32", "unit": "µM"}, {"measurement": "nmoles NO/10^6 Cells", "setting": "[5]; 2.5 mM", "result": "21.4 ± 3.7", "unit": "nmoles NO/10^6 Cells"}, {"measurement": "uM NO", "setting": "[5]; 2.5 mM", "result": "5.46 ± 0.32", "unit": "µM"}, {"measurement": "nmoles NO/10^6 Cells", "setting": "[5]; 5 mM", "result": "72.9 ± 10.5", "unit": "nmoles NO/10^6 Cells"}, {"measurement": "uM NO", "setting": "[5]; 5 mM", "result": "6.36 ± 0.12", "unit": "µM"}]}]}
